Laboratory results as given in PMC11020070, “Discovery of Protease-Activated Receptor 4 (PAR4)-Tethered Ligand Antagonists Using Ultralarge Virtual Screening” (ACS Pharmacology & Translational Science, 2024).
Read-outs that look alike come from different tables or passages of the source.

Legend:
[1] = design: method as in PMID 35758258, PMID 23222541; details: phase I, healthy participants; cited from earlier work
PAR4 = biological target: T1, PAR4 (Homo sapiens, UniProt Q96RI0); experiment: Human platelet activity assay, flow cytometry, γ-thrombin activation; format: cell-based; design: endogenous in cells; host or cells: washed human platelets from healthy volunteers; details: human platelets, 100 nM γ-thrombin
T1 sequence (Q96RI0 18-385): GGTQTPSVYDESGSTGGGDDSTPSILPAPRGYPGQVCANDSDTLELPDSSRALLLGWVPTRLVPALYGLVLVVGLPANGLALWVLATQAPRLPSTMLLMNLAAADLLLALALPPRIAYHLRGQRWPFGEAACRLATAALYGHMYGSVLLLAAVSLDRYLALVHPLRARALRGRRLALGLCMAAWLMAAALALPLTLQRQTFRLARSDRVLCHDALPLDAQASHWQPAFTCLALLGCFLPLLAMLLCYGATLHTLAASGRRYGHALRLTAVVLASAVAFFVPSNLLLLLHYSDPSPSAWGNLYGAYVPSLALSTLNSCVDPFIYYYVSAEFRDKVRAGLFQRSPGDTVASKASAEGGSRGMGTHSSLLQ
Description: To test the antagonistic effect of the compounds on PAR4, a flow cytometry assay of human platelets was employed. Each compound was screened at 10 μM in human platelets using flow cytometry for GPIIbIIIa activation (PAC1) and P-selectin (CD62p) expression as previously described.[4] Activation of GPIIbIIIa allows interaction with divalent fibrinogen or multivalent von Willebrand factor, leading to platelet aggregation.[41] PAR4 stimulation also triggers α-granule secretion containing P-selectin.[5] […] Platelets were treated with each test compound or vehicle control DMSO before activating with γ-thrombin (100 nM) or PAR4 agonist peptide mimetic (200 μM, “PAR4-AP” AYPGKF) for 30 min. γ-thrombin activates PAR4 but not PAR1.[42]
Activation of washed human platelets was monitored by flow cytometry for the detection of PAC1 (GPIIbIIIa activation) and CD62p (P-selectin expression) binding as previously described.[4] Human platelets were obtained from healthy volunteers. The Vanderbilt University Internal Review Board approved these studies. Informed consent was obtained from all individuals prior to the blood draw. 10 mL of whole blood was collected into 0.32% Na citrate. Platelet-rich plasma was collected after room-temperature centrifugation at 1100 rpm for 15 min on a Thermo Forma 400 centrifuge (Thermo Fisher, Waltham, MA). 1/10 volume of acid citrate dextrose (ACD) buffer was added to the collected supernatant and incubated for 10 min. After centrifugation at 2400 rpm for 10 min, the platelet pellet was resuspended in 1 mL Tyrode’s buffer (“TBB”: 15 mM HEPES, 0.33 mM NaH2PO4, pH 6.4, 138 mM NaCl, 2.7 mM KCl, 1 mM MgCl2, 5.5 mM dextrose, 0.1% bovine serum albumin). Platelets were collected, counted on a Z1 Coulter Particle Counter (Beckman Coulter, Brea, CA), and diluted in TBB to 1.5 × 10^7 platelets/mL. 60 uL of platelets were aliquoted to each tube and preincubated with 40 μL of TBB with antibodies PAC1 FITC (Becton Dickinson, Franklin Lakes NJ) and P-selectin PE (Becton Dickinson) and either test compound antagonist or DMSO vehicle control for 20 min. Platelets were then activated with 100 nM γ-thrombin or other agonists for 30 min. Samples were then fixed by adding 100 μL of 2% paraformaldehyde. After 30 min, samples were diluted by adding 300 μL of phosphate-buffered saline (PBS) and stored at 4C. Data were collected on a three-laser BD LSRFortessa (Becton Dickinson) and analyzed with FlowJo software (FlowJo LLC, Ashland, OR). The mean fluorescence intensity (geometric) of PE and FITC was determined from 30,000 events after compensation correction. Data were normalized to vehicle (DMSO) controls.
Compounds were screened for inhibition activity against human PAR4 using 100 nM γ-thrombin or 200 μM PAR4-AP in a single-point assay (10 μM test compound).

mouse PAR4 = biological target: T2, mouse PAR4 (Mus musculus, UniProt O88634); experiment: Mouse platelet activity assay, flow cytometry, γ-thrombin activation; format: cell-based
T2 construct: washed mouse platelets were prepared by collecting cardiac puncture blood; endogenous in cells; host or cells: washed mouse platelets (cardiac puncture blood)
T2 sequence (O88634 17-396): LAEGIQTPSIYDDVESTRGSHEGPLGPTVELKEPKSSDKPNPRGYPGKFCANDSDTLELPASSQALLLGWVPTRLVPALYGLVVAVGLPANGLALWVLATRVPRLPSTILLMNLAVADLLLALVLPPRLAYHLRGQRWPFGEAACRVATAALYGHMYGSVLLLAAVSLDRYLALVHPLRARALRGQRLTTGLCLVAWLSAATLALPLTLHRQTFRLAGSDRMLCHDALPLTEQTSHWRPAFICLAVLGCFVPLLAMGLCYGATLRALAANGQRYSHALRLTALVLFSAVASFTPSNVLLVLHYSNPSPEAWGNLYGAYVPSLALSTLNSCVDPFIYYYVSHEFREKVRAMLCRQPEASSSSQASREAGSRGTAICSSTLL
Description: For mouse PAR4 activity, washed mouse platelets were prepared by collecting cardiac puncture blood with 200 μL of 20 U/mL heparin. Following centrifugation at 1000 rpm for 15 min, plasma and buffy coat were collected into a separate tube and spiked with apyrase and PGE1. After centrifuging at 1000 rpm for 8 min, the platelet-rich plasma was transferred to another tube and centrifuged at 2200 rpm for 10 min to pellet the platelets. Platelets were resuspended in TBB + apyrase + PGE1. Platelets were counted and diluted in TBB to a final concentration of 2 × 10^7 platelets/mL. 50 μL of platelets were aliquoted to each tube preincubated with 50 μL of TBB with antibodies for mouse GPIIbIIIa and P-selectin (Emfret, Eibelstadt Germany) and either test compound antagonist or DMSO control. Platelets were activated with 316 nM γ-thrombin for 30 min. Samples were then fixed with 100 μL of 2% paraformaldehyde for 20 min and diluted with 300 μL of PBS. Flow cytometry counts are measured as for human platelets on a three-laser BD LSRFortessa (Becton Dickinson) and analyzed with FloJo software.

[2] = Microsomal stability, human liver microsomes; format: in vitro ADME
Description: The metabolic stability of each compound was investigated in mouse and human hepatic microsomes using substrate depletion methodology (% parent compound remaining). Prior to use, microsomes were removed from the freezer and allowed to thaw in a 37 °C water bath before being placed on wet ice.
In separate 96-well plates for each time point, a mixture of 0.1 M potassium phosphate-buffered (pH 7.4), 3 mM MgCl2, and 2.5 mg/mL microsomes were prewarmed at 37 °C for 5 min. Following the preincubation, a 1 μM test compound and 1 mM NADPH (for 3, 7, 15, 25, or 45 min time points) or buffer (for 0 min time point) were added to initiate the reaction. Under standard conditions, reactions were initiated with the addition of NADPH. To delineate the contribution of esterases, some experiments were initiated by the addition of substrate in the presence or absence of NADPH. Plates were incubated at 37 °C under ambient oxygenation. At the respective times, each plate’s reaction was precipitated by the addition of 2 volumes of ice-cold acetonitrile containing an internal standard (carbamazepine, 50 nM). The plates were centrifuged at 4000 rcf (4 °C) for 5 min. The resulting supernatants were transferred and diluted 1:1 (supernatant:water) into new 96-well plates in preparation for LC/MS/MS analysis. Each compound was assayed in triplicate within the same 96-well plate. The in vitro half-life (t1/2, min, eq 1), intrinsic clearance (CLint, mL/min/kg, eq 2), and subsequent predicted hepatic clearance (CLhep, mL/min/kg, eq 3) were determined employing the following equations [drawing 1] 1 [drawing 2] 2 [drawing 3] 3 The estimated percent contribution to metabolism was calculated from the percent substrate lost plots generated from metabolic incubations initiated with the addition of a test compound. Calculations compared the area under the curve (AUC) from conditions in the presence and absence of NADPH and buffer-only (control) conditions (eqs 4 and 5). AUC was calculated by using the trapezoidal method [drawing 4] 4 [drawing 5] 5
The analysis of in vitro samples from microsomal stability or plasma protein binding experiments was determined by employing LCMS/MS with an electrospray ionization-enabled 5500 Sciex instrument (Sciex, Foster City, CA) that was coupled to Agilent HPLC pumps and an autosampler (Agilent Technologies, Santa Clara, CA). Analytes were separated by gradient elution using a Kinetex C18 column (2.1 mm × 50 mm, 5 μm; Phenomenex, Torrance, CA) warmed to 35 °C. Mobile phase A was 0.5% formic acid in water, and mobile phase B was 0.5% formic acid in acetonitrile. […] The total run time was 2.8 min, and the HPLC flow rate was 0.5 mL/min. Mass spectral analyses were performed using multiple reaction monitoring, with transitions and voltages specific for each analyte using a Turbo Ion Spray source (source temperature of 500 °C) in positive ionization mode (5.0 kV spray voltage). Multiple reaction monitoring transitions were the following: 6110B8 (m/z 345.02 → 149.03, DP = 31; EP = 10; CE = 37 and CXP = 14), 6G3R (m/z 421.06 → 225.12, DP = 91; EP = 10; CE = 39 and CXP = 12), 5D22 (m/z 309.068 → 211.16, DP = 131; EP = 10; CE = 29 and CXP = 12), and carbamazepine (m/z 237 → 194, DP = 96; EP = 10; CE = 25 and CXP = 8). Data were analyzed using OS Sciex Analyst 1.5.1 (SCIEX, Framingham, MA), Graphpad Prism 10.1.0 (GraphPad Software, Boston, Massachusetts), and Microsoft Excel version 2310 (Microsoft, Redmond, WA).

[3] = Plasma protein binding, human plasma; format: in vitro ADME; details: pH 7.4, read-out: human PPB fu
[4] = GPIIbIIIa activation (PAC1), read-out: Human Platelets PAC1 IC50
[5] = P-selectin (CD62p), read-out: Human Platelets P-Sel IC50
[6] = mouse platelets, 316 nM γ-thrombin, GPIIbIIIa (JonA), read-out: Mouse Platelets JonA IC50
[7] = mouse platelets, 316 nM γ-thrombin, P-selectin, read-out: Mouse Platelets P-Sel IC50

IC50 (PAR4; [4]) [nM]	IC50 (PAR4; [5]) [nM]	IC50 (mouse PAR4; [6]) [nM]	IC50 (mouse PAR4; [7]) [nM]	CLint scaled at 1 µM ([2]; pH 7.4, human liver microsomes, in vitro, reaction started with NADPH) [mL/min/kg]	human CLhep ([2]; predicted hepatic clearance from human liver microsomes) [mL/min/kg]	IC50 (mouse PAR4; Table 4 summary, read-out: mouse PAR4 IC50) [nM]	fraction unbound at 4 h [3]	Compound	safety and tolerability [1]
1130	1160	11300	6160					Cc1nc(NC(=O)c2cc(C(=O)OC(C)(C)C)n(-c3ccccc3)n2)n[nH]1 [Compound 10]	
835	1040	1340	1290					Cn1nc(C(=O)Nc2n[nH]c(-c3ccccc3Cl)n2)cc1C1CC1 [Compound 14]	
495	580	672	807					CCc1cc(C(=O)Nc2n[nH]c(-c3c(F)cccc3F)n2)nn1C [Compound 15]	
460	569	1140	1180					Cn1nc(C(=O)Nc2n[nH]c(-c3ccc(C#N)cc3)n2)cc1C1CC1 [Compound 16]	
923	1390	1190	1140					Cc1n[nH]c(NC(=O)c2nn(-c3cccc(F)c3)c3c2CCC3)n1 [Compound 19]	
3250	4780							Cc1n[nH]c(NC(=O)c2nn(-c3ccc(F)cc3)c3c2CCC3)n1 [Compound 21]	
182	228	354	351					O=C(Nc1n[nH]c(C2CC2)n1)c1nn(-c2ccccc2)c2c1CCCC2 [Compound 26]	
		296	345	416	20	296	0.006	O=C(Nc1n[nH]c(-c2cccc(OC(F)F)c2)n1)c1nn(-c2ccccc2)c2c1CCCC2 [Compound 33]	

Further lines, the compound ahead of its results:

Compound	IC50 (PAR4; [4]) [nM]	IC50 (PAR4; [5]) [nM]	IC50 (mouse PAR4; [6]) [nM]	IC50 (mouse PAR4; [7]) [nM]	CLint scaled at 1 µM ([2]; pH 7.4, human liver microsomes, in vitro, reaction started with NADPH) [mL/min/kg]	human CLhep ([2]; predicted hepatic clearance from human liver microsomes) [mL/min/kg]	IC50 (mouse PAR4; Table 4 summary, read-out: mouse PAR4 IC50) [nM]	fraction unbound at 4 h [3]	safety and tolerability [1]
COc1cc(OCc2csc(-c3ccc(C(=O)N(C)C)cc3)n2)c2cc(-c3cn4nc(OC)sc4n3)oc2c1 [BMS-986141]									safe and well tolerated
Cc1nc(NC(=O)c2cc(-c3ccccc3)[nH]n2)n[nH]1 [Compound 8]	2790	2210							
CC(C)c1cc(C(=O)Nc2n[nH]c(-c3c(F)cccc3F)n2)nn1C [Compound 11]	606	847	1090	1630					
Cn1nc(C(=O)Nc2n[nH]c(-c3ccccc3F)n2)cc1C1CC1 [Compound 13]	593	630	715	699					
O=C(Nc1n[nH]c(C2CC2)n1)c1nn(-c2ccccc2)c2c1CCC2 [Compound 24]	392	523	958	1130					
O=C(Nc1n[nH]c(-c2cccc(C(F)(F)F)c2)n1)c1nn(-c2ccccc2)c2c1CCCC2 [Compound 27]	152	208	367	368					
O=C(Nc1n[nH]c(C2CC2)n1)c1nn(-c2cccc(F)c2)c2c1CCCC2 [Compound 28]	254	280	981	793					
O=C(Nc1n[nH]c(-c2ccccc2)n1)c1nn(-c2ccccc2)c2c1CCCC2 [Compound 29]	450	603	1110	1160					
N#Cc1ccc(-c2nc(NC(=O)c3nn(-c4ccccc4)c4c3CCCC4)n[nH]2)cc1 [Compound 30]	395	496	1840	1420					
